In patent publication US12697366B2, “Thermogenic compositions and methods” (Ohio State Innovation Foundation, priority 2016, dated 2026):
Non-standard residues stand in square brackets, D forms with d. Residues, ends and D or L forms follow the SMILES beside them. ξ: configuration not given here. *: point of attachment. Succinyl(20-O-(20S)-CPT) = CC[C@@]1(OC(=O)CCC(=O)*)C(=O)OCc2c1cc1n(c2=O)Cc2cc3ccccc3nc2-1; Fmoc = O=C(OCC1c2ccccc2-c2ccccc21)*; ξK = NCCCCC(N)C(=O)O; Bz = O=C(c1ccccc1)*; ξC = NC(CS)C(=O)O

Experiments:
[1] = tested on: 3T3-L1 cells; test: LDH release cytotoxicity (CytoTox 96) in 3T3-L1 cells; format: cell-based, mouse; settings: different concentrations, 6 hours
Protocol: Non-differentiated, 90% confluent 3T3-L1 cells were incubated with different concentrations of nanoscaffolds #1, #2, or #3 for 6 hours. Cytotoxicity was measured the lactate dehydrogenase (LDH), released upon cell lysis using The CytoTox 96 assay (Promega, Cat #G1780).

[2] = tested on: HT-29 colorectal cancer cells; test: Viability / cytotoxicity assay on HT-29 colorectal cancer cells; format: cell-based, human; settings: in vitro
[3] = tested on: NCI-H23; test: MTT cytotoxicity on NCI-H23; format: cell-based, human
Protocol: (§1) The non-oxidized CPT-CCKK nanotube was assessed for cytotoxic efficacy against human non-small cell lung cancer (NSCLC) cell lines A549, NCI-460, and NCI-H23, which were selected according to the indications of approved CPT derivative Topotecan. […] The explanation for the cytotoxicity results could be that CPT-CCKK release active CPT in a time-dependent manner, and the entire true concentration for CPT in the cell medium is less than that of free CPT. […] It has been reported before that the GSH level in H460 was almost twice higher than that in A549. Therefore, higher concentration of GSH in H460 accelerated the breakage of the disulfide bonds within the crosslinked CPT-CCKK nanotubes, leading to faster release of active CPT and higher in vitro cytoxicity.

[4] = tested on: A549; test: MTT cytotoxicity on A549; format: cell-based; settings: Homo sapiens
Protocol: as §1

[5] = tested on: NCI-460; test: MTT cytotoxicity on NCI-460 (H460); format: cell-based; settings: Homo sapiens
Protocol: as §1

[6] = tested on: 3T3-L1 adipocytes; test: Thermogenic gene expression in 3T3-L1 adipocytes (TaqMan / RT-PCR); format: cell-based, mouse; settings: recombinant EFNA5 10 ng/mL, 4 days
Protocol: FIGS. 9A to 9D show DRG neurons (500 neurons per well) cultured in DRG culture medium only, or DRG culture medium with NT-3 (1 ng/mL), with NGF (10 ng/mL), with WT secretome (1/1, v/v), or with Aldh1a1^−/− secretome (1/1, v/v) for 24 hours. WT and Aldh1a1^−/− adipocytes differentiated for 5 days. Secretome is the media collected from these cells for 24 h. Neurite outgrowth parameters were assayed using the Thermo Scientific™ ArrayScan™ XTI Live High Content microscope and analyzed with the Neuronal Profiling Algorithm (ThermoFisher). Nine independent experiments were performed using DRG from three mice. Each DRG batch was analyzed in triplicate. Data are shown as mean±SD obtained with one DRG batch. Asterisks indicate P<0.05 between different groups; Mann-Whitney U test. FIG. 9A: Representative images show ~25% of area used for the automatic quantification of neuronal parameters in FIG. 3 per one condition. […] FIG. 9B: Secreted EFNA5 levels in the medium from 3T3-L1 preadipocytes and adipocytes differentiated for 4d were analyzed by ELISA. FIG. 9C: Basal metabolic rate (heat) was measured in PBS- and EFNA5-injected mice from Table 1, Study 4 by an open circuit indirect calorimetry treadmill. […] Expression was measured by RT-PCR and normalized by 18S.
FIGS. 11A to 11I show adipokine Ereg is bilaterally associated with obesity and thermogenesis and activates PPARα. […] FIG. 11B: Ereg expression was measured in non-differentiated and differentiated (day 5) 3T3-L1 adipocytes (Mann-Whitney test) using a customized NanoString mouse panel. FIG. 11C: Ereg expression was measured in differentiated (day 5) 3T3-L1 and Aldh1a1^−/− adipocytes by Taqman and normalized to TATA box protein (TBP). FIG. 11D: Plasma EREG concentrations were measured in mice from Study 1 by western blot. […] FIG. 11E: Plasma EREG concentrations were measured and quantified in iAb of WT and ob/ob mice from Study 2 by western blot (n=5 per each group). […] FIG. 11F: EREG was measured in iAb, subcutaneous and brown fat by western blot. […] Expression level were measured by Taqman and normalized by TBP. […]

[7] = tested on: DRG neurons; test: Neurite outgrowth of DRG neurons (ArrayScan XTI, Neuronal Profiling algorithm); format: cell-based, mouse; settings: recombinant EFNA5 30 ng/mL, 24 hours
Protocol: Single cell suspensions from cervical, thoracic, and lumbar DRG neurons were isolated from terminally anesthetized C57BL/6 adult female mice (12-16 weeks old, The Jackson Laboratory). Dissected DRGs were enzymatically digested in a solution of collagenase type 2 (200 U/mL; Sigma, St. Louis, MO) and dispase I (5 U/mL; Sigma) on a shaker for 45 min at 37° C. (Davies et al., 1999). Enzyme solution was aspirated and cells were washed twice in Hank's Balanced Salt Solution 1× (HBSS; Mediatech Inc., Manassas, VA) before incubating in DNase I type II (5 mg/mL; Worthington Biochemical, Lakewood, NJ) for 5 min at room temperature. […] The neuron-enriched pellet was resuspended in DRG culture medium (DMEM/F12, 1% N2 supplement, and 0.05% Gentamicin) and live cells were counted on a hemocytometer using trypan blue exclusion. […] Cells were automatically imaged using a Thermo Scientific™ ArrayScan™ XTI Live High Content microscope and analyzed with the Neuronal Profiling algorithm (ThermoFisher) (Lerch et al., 2014). Total neurite length, average neurite length, number of branch points, critical value, dendrite maximum, and ramification index were averaged across all neurons detected per well, with 3 wells included per treatment. […] Dendrite maximum and critical value are parameters determined based on Scholl analysis, and are automatically generated by the software. […]

[8] = tested on: Brainbow (BB) mice fed a high-fat (HF) diet; test: Study 5: recombinant EFNA5 injected into iAb fat of Brainbow mice fed a HF diet; format: in vivo, mouse
Protocol: Brainbow (BB) B6.Cg-Tg(Thy1-Brainbow1.0)HLich/J mice were purchased from The Jackson Laboratory (n=7, females). 5-week old BB mice were fed a HF for 140 days. Then mice were randomly assigned into groups injected with PBS (n=3) and recombinant EFNA5 (n=4). Mice were individually housed for all treatment periods. Mice were injected into both iAb fat depots with 100 μL PBS/iAb depot or with PBS containing recombinant EFNA5 (Life Technologies, 45 ng/mL) every other day for 1 month. Metabolic measurements were performed. WAT were collected for protein, mRNA, and histology.
Metabolic parameters were measured by indirect calorimetry (CLAMS, Columbus Instruments, Columbus, OH) at ambient temperature (22° C.) with 12 h light/dark cycles. Animals were fed the same HF diet and water was provided ad libitum. Mice were placed individually and allowed to acclimatize in the chambers for 12 h. Oxygen consumption, CO2 production, energy expenditure, and locomotor activity were measured for at least 24 h. […] For cold exposure the temperature was changed to 4° C. for 6 h.
Cell/tissue protein lysates normalized by protein content (BCA, ThermoFisher). Medium was collected from cells plated at similar numbers. Protein lysate or medium were separated on 10% acrylamide gel under reducing conditions. After transfer to a polyvinylidene fluoride membrane (Immobilon-P; Millipore), proteins were analyzed using an Odyssey Infrared Imaging System (LI-COR Biosciences). Peripherin and tyrosine hydroxylase polyclonal rabbit antibodies (Abcam, Cambridge, MA) were used at 1:1000 dilution.

[9] = Study 5, BB mice, HF diet, EA5 vs PBS

## Fmoc-KK(SucBz) [nanoscaffold #1]
[1]
  cytotoxicity (LDH release): not toxic

## NCCCC[C@H](NC(=O)OCC1c2ccccc2-c2ccccc21)C(=O)N[C@@H](Cc1ccccc1)C(=O)N[C@@H](CCCCN)C(=O)N[C@@H](CCCCNC(=O)c1ccccc1)C(N)=O [Fmoc-KFKK(Bz)-NH2] (Fmoc-KFKK(Bz)-NH2)
[2]
  cytotoxic efficacy against human colorectal cell line: no efficacy

## CC[C@@]1(OC(=O)CCC(=O)NC(CS)C(=O)NC(CS)C(=O)NC(CCCCN)C(=O)NC(CCCCN)C(N)=O)C(=O)OCc2c1cc1n(c2=O)Cc2cc3ccccc3nc2-1 (stereo partly drawn) [CPT-CCKK] ({Succinyl(20-O-(20S)-CPT)}-[ξC][ξC][ξK][ξK]-NH2)
[3]; H23 cell lines
  less cytotoxic than parental drug CPT: roughly 3 folds

## CC[C@@]1(O)C(=O)OCc2c1cc1n(c2=O)Cc2cc3ccccc3nc2-1 [CPT, Camptothecin]
[4]; 96 h MTT, experiment with non-oxidized nanotube (FIG. 36A)
  IC50: 200 nM
[4]; experiment with crosslinked nanotubes (FIG. 36B)
  IC50: ~830 nM
[3]; Homo sapiens, NCI-H23, 96 h MTT, experiment with non-oxidized nanotube (FIG. 36A)
  IC50: 190 nM
[5]; NCI-460, 96 h MTT, experiment with non-oxidized nanotube (FIG. 36A)
  IC50: 270 nM
[5]; H460, experiment with crosslinked nanotubes (FIG. 36B)
  IC50: 350 nM

## CCN(CC)c1ccc2cc(C(=O)NCCCC[C@H](NC(=O)[C@H](CCCCN)NC(=O)OCC3c4ccccc4-c4ccccc43)C(N)=O)c(=O)oc2c1 [nanoscaffold #2, Fmoc-KK(DAC)]
[1]
  cytotoxicity (LDH release): not toxic

B1: EFNA5: recombinant ephrin-A5 ligand protein (protein)
chain: QDPGSKVVADRYAVYWNSSNPRFQRGDYHIDVCINDYLDVFCPHYEDSVPEDKTERYVLYMVNFDGYSACDHTSKGFKRWECNRPHSPNGPLKFSEKFQLFTPFSLGFEFRPGREYFYISSAIPDNGRRSCLKLKVFVRPTNSCMKTIGVHDRVFDVNDKVENSLEPADDTVHESAEPSRGEN
[6]
  regulation of expression of thermogenic genes (Ucp1): no direct effect
[7]
  dendritic maximum and critical value in neurons: increased
[8]; EFNA5- vs. PBS-injected mice, 4° C.
  metabolic rate on cold exposure: increased
[8]; EFNA5 vs. PBS, after 2 weeks of treatment, Western blot
  tyrosine hydroxylase protein levels in WAT: increased
[8]; [9]
  Body Wt.: 28.7 ± 3.2 g
  Brown Fat: 0.1 ± 0.03 g
  Sub Fat: 1.0 ± 0.4 g
  iAb Fat: 1.2 ± 0.5 g
